The values that follow come from patent US8906829B2, “Synergistic algicidal compositions including hydrazone derivatives and copper” (Dow AgroSciences LLC, priority 2010, dated 2014).

Series [1] deals with Synechocystis sp. strain 6803. In words: Effect of copper on activity of hydrazones: in vitro growth inhibition of Synechocystis in BG-11 Cu minus / Cu plus medium (Example 11). It counts as cell-based. To be noted: 72 h; for % Inhn. Plus Copper Observed: BG-11 Cu plus medium. As for the experimental part:
In vitro toxicity assays against the cyanobacterium (blue-green alga) Synechocystis sp. strain 6803 were conducted using BG-11 medium except that copper micronutrient, normally included as CuSO4.5H2O, was omitted. The medium, termed BG-11 Cu minus, was prepared by dissolving 1.5 g NaNO3, 40 mg K2HPO4, 6 mg citric acid, 1 mg Na2EDTA and 20 mg Na2CO3 in 1 liter of milli Q water and treating the solution with 0.5 g Chelex 100 resin (Bio-Rad Analytical grade, 50-100 mesh, sodium form, cat#142-2822) by stifling at room temperature for 1 h. 900 mL were decanted and 67.5 mg MgSO4.7H2O, 32.4 mg […], 5.4 mg ferric ammonium citrate and 0.9 mL trace metal mix A5 without copper (2.86 g H3BO3, 1.81 g MnCl2.4H2O, 222 mg ZnSO4.7H2O, 390 mg Na2MoO4.2H2O and Co(NO3)2.6H2O in 1 L Milli Q water) was added. The pH was adjusted to 7.1 and the medium was filter-sterilized. Medium containing copper (BG-11 Cu plus) was prepared by adding CuCl2.2H2O to the BG-11 Cu minus medium at 0.2 μM. Test compounds were dissolved in dimethylsulfoxide (DMSO) at 2 mg/mL then appropriate dilutions in BG-11 Cu minus and BG-11 Cu plus media were prepared in sterilized microcentrifuge tubes. 100 μL aliquots were dispensed into flat-bottomed 96-well microtiter plates. Synechocystis was maintained under 24 h of light on BG-11 agar plates at 27° C. A loopful of cells was added to 50 mL of BG-11 Cu minus growth medium and the culture was incubated with shaking at 200 rpm at 27° C. for 24 h. The culture (10 to 20 mL aliquot) was centrifuged in a bench centrifuge at 2400 rpm for 2 min. The resulting cell pellet was resuspended in 5 mL sterile milli Q water (which had been treated with Chelex 100 resin using 0.5 g resin per liter of water by stirring at room temperature for 1 h), and recentrifuged. The cells were resuspended in BG-11 Cu minus medium, and the suspension adjusted to 4×10^5 spores per mL. Microtiter plates containing compounds as described above were inoculated with 100 μL of this cell suspension and the plates incubated at 27° C. for 72 h before assessing algal growth by measuring light scattering in a NepheloStar plate reader. Growth inhibition was determined by comparing growth in the presence of test compound with growth in control wells lacking test compound. Results for growth inhibition by test compounds in BG-11 Cu plus medium (% Inhn Plus Copper Observed) were compared with predicted values (% Inhn Plus Copper Predicted) that were calculated using the formula set forth by S. R. Colby in Weeds 1967, 15, 20-22 based on-results obtained for the same compounds in BG-11 Cu minus medium (% Inhn Minus Copper Observed) and the inhibition attributed to copper chloride alone, as determined by comparing growth in copper-minus and copper-plus media without any test compound across experiments. Results illustrate that hydrazones and copper produce a synergistic algicidal effect towards Synechocystis.

The next series concerns C. reinhardtii CC-1928. In words: Effect of copper on activity of hydrazones: in vitro growth inhibition of C. reinhardtii in TAP Cu minus / TAP Cu plus medium (Example 10). Type of series: cell-based, Chlamydomonas reinhardtii. To be noted: test compound 1 μg/mL, 48 h; for inhibition of growth at 1 µg/mL: Chlamydomonas reinhardtii, TAP Cu minus medium, read-out: % Inhn. Minus Copper Observed; for % Inhn. Plus Copper Observed: TAP Cu plus medium (CuCl2). On the procedure:
In vitro toxicity assays against C. reinhardtii CC-1928 (wild type mt+137c green in dark subclone) obtained from the Chlamydomonas Resource Center at Duke University were conducted using TAP liquid growth medium described by Gorman and Levine Proc. Natl. Acad. Sci. USA 1965, 54, 1665-1669 except that CuSO4.5H2O, normally included as a component of Hutner's trace element stock solution (Hutner et al. Proc. Am. Philos. Soc. 1950, 94, 152-170), was omitted. The TAP medium lacking Cu (TAP Cu minus) was prepared by adding 400 mg NH4Cl, 10 mL of 100× Tris-Acetate (242 g Tris-base and 100 mL glacial acetic acid in 1000 mL milli Q water), and 8.3 mL of 120.5× phosphate buffer (14.34 g K2HPO4 and 7.26 g KH2PO4 in 1000 mL milli Q water) to milli Q water to make a total volume of 1 liter. The medium was treated with 0.5 g Chelex 100 resin (Bio-Rad Analytical grade, 50-100 mesh, sodium form, cat#142-2822) by stirring at room temperature for 1 hour. 900 mL were decanted and 45.9 mg of CaCl2.2H2O, 90 mg of MgSO4.7H2O and 0.9 mL Hutner's trace elements lacking CuSO4.5H2O were added and the solution was filter-sterilized. Medium containing copper (TAP Cu plus) was prepared by adding CuCl2.2H2O to the TAP Cu minus medium at 20 μM. Test compounds were dissolved in dimethylsulfoxide (DMSO) at 2 mg/mL then dilutions in TAP Cu minus and TAP Cu plus media were prepared in sterilized microcentrifuge tubes at 2 μg/mL. 100 μL aliquots of diluted compound were dispensed into flat-bottomed 96-well microtiter plates. C. reinhardtii was maintained under 12 h of light on TAP agar plates at 18° C. A loopful of cells was added to 50 mL of TAP Cu minus medium and the culture incubated with shaking at 200 rpm at 27° C. for 24 h. The culture (10 to 20 mL aliquot) was centrifuged in a bench centrifuge at 2000 rpm for 2 min. The resulting cell pellet was resuspended in 5 mL sterile milli Q water (which had been treated with Chelex 100 resin using 0.5 g resin per liter of water by stirring at room temperature for 1 h), and recentrifuged. The cells were resuspended in TAP Cu minus medium, and the suspension adjusted to 2×10^5 spores per mL. Microtiter plates containing compounds as described above were inoculated with 100 μL of this cell suspension and the plates incubated at 27° C. for 48 h before assessing algal growth by measuring light scattering in a NepheloStar plate-reader. Growth inhibition was determined by comparing growth in the presence of test compound with growth in control wells lacking test compound. Results for growth inhibition by test compounds at 1 μg/mL in TAP Cu plus medium (% Inhn Plus Copper Observed) were compared with predicted values (% Inhn Plus Copper Predicted) that were calculated using the formula set forth by S. R. Colby in Weeds 1967, 15, 20-22 based on results obtained for the same compounds in TAP Cu minus medium (% Inhn Minus Copper Observed). […] Results illustrate that hydrazones and copper produce a synergistic algicidal effect towards C. reinhardtii.

Setting [2] is: Synechocystis, Test Concn. 0.05 μg/mL, BG-11 Cu minus medium, read-out: % Inhn. Minus Copper Observed.
The mark [3] stands for this setting: Synechocystis, Test Concn. 0.0125 μg/mL, BG-11 Cu minus medium, read-out: % Inhn. Minus Copper Observed.

Molecule `O=C(N/N=C/c1c(Cl)ccc(Cl)c1O)c1cccc(Cl)c1` [Compound 44] showed a melting point of 232 to 234 °C. In addition, the inhibition of growth at 0.05 µg/mL in series [1] (setting [2]) was 61%. The “% Inhn. Plus Copper Observed” value in series [1] (Test Concn. 0.05 μg/mL) worked out at 93%. Moreover, in the series on C. reinhardtii CC-1928, the inhibition of growth at 1 µg/mL stood at 11% and the “% Inhn. Plus Copper Observed” value is 94%.
The molecule `O=C(N/N=C/c1c(Cl)ccc(Cl)c1O)c1ccccc1O` [Compound 46] gave a melting point of 260 to 262 °C. Further, in series [1] (setting [3]), the inhibition of growth at 0.0125 µg/mL amounted to 37%. Moreover, the “% Inhn. Plus Copper Observed” value in series [1] (Test Concn. 0.0125 μg/mL) worked out at 80%. In addition, in the series on C. reinhardtii CC-1928, the inhibition of growth at 1 µg/mL is 0% and the “% Inhn. Plus Copper Observed” value was 92%.
As to `O=C(N/N=C/c1cc(Cl)cc(C(F)(F)F)c1O)c1cccc(Cl)c1` [Compound 47], the melting point was in the range of 228 to 229 °C. For the same molecule, the inhibition of growth at 0.0125 µg/mL in series [1] (setting [3]) came to 24%. Further, the “% Inhn. Plus Copper Observed” value in series [1] (Test Concn. 0.0125 μg/mL) is 60%. In addition, in the series with C. reinhardtii CC-1928, the inhibition of growth at 1 µg/mL was -5% and the “% Inhn. Plus Copper Observed” value is 77%.
For the molecule `O=C(N/N=C/c1cc(Cl)cc(C(F)(F)F)c1O)c1ccccc1O` [Compound 48], the melting point fell in the range of 258 to 260 °C. Also, in series [1] (setting [2]), the inhibition of growth at 0.05 µg/mL was found to be 32%. Besides, in series [1] (Test Concn. 0.05 μg/mL), the “% Inhn. Plus Copper Observed” value was determined as 95%. In the series with C. reinhardtii CC-1928, the inhibition of growth at 1 µg/mL is 18% and the “% Inhn. Plus Copper Observed” value amounted to 92%.
In the same order, the values of `Cc1cccc(C(=O)N/N=C/c2cccc(Cl)c2O)c1` [Compound 50] are 166 to 169 °C, -7%, 95%, 6% and 97%.
`O=C(N/N=C/c1cccc(Cl)c1O)c1cccc(Cl)c1` [Compound 51] yielded a melting point of 174 to 178 °C. In series [1] (setting [2]), the inhibition of growth at 0.05 µg/mL came out at 17%. Further, in series [1] (Test Concn. 0.05 μg/mL), the “% Inhn. Plus Copper Observed” value is 97%. For the same molecule, in the series on C. reinhardtii CC-1928, the inhibition of growth at 1 µg/mL is -13% and the “% Inhn. Plus Copper Observed” value came to 96%.
For `O=C(N/N=C/c1cccc(Cl)c1O)c1ccc([N+](=O)[O-])cc1` [Compound 53], the melting point fell in the range of 284 to 287 °C. Moreover, the inhibition of growth at 0.05 µg/mL in series [1] (setting [2]) was found to be 45%. Further, the “% Inhn. Plus Copper Observed” value in series [1] (Test Concn. 0.05 μg/mL) was determined as 94%. Moreover, in the series on C. reinhardtii CC-1928, the inhibition of growth at 1 µg/mL worked out at 8% and the “% Inhn. Plus Copper Observed” value is 88%.
In the same order, the values of `O=C(N/N=C/c1cccc(Cl)c1O)c1ccccc1O` [Compound 54] are 266 to 268 °C, 37%, 88%, -8% and 75%.
In the same order, the values of `Cc1ccc(C(=O)N/N=C/c2cccc(Cl)c2O)c(O)c1` [Compound 55] are 258 to 266 °C, 68%, 92%, -3% and 97%.
The like results for `O=C(N/N=C/c1c(C(F)(F)F)ccc(Cl)c1O)c1ccccc1O` [Compound 57] were, in that order, 278 to 280 °C, 61%, 92%, -11% and 95%.
Consider `C/C(=N\NC(=O)c1c(C)cccc1O)c1cc(Cl)cc(Cl)c1O` [Compound 58], for which the melting point was determined as 245 °C. Moreover, the inhibition of growth at 0.025 µg/mL in series [1] (Synechocystis, Test Concn. 0.025 μg/mL, BG-11 Cu minus medium, read-out: % Inhn. Minus Copper Observed) came out at 46%. Also, in series [1] (Test Concn. 0.025 μg/mL), the “% Inhn. Plus Copper Observed” value is on record as 64%. Besides, in the series on C. reinhardtii CC-1928, the inhibition of growth at 1 µg/mL worked out at 3% and the “% Inhn. Plus Copper Observed” value is 93%.
Consider `C/C(=N\NC(=O)c1ccc(C)cc1)c1cccc(Cl)c1O` [Compound 59], for which the melting point lay in the range of 195 to 200 °C. In addition, in series [1] (setting [2]), the inhibition of growth at 0.05 µg/mL was determined as 1%. For the same molecule, in series [1] (Test Concn. 0.05 μg/mL), the “% Inhn. Plus Copper Observed” value amounted to 93%. In the series on C. reinhardtii CC-1928, the inhibition of growth at 1 µg/mL is -6% and the “% Inhn. Plus Copper Observed” value was determined as 92%.
In the case of `C/C(=N\NC(=O)c1ccc(Br)cc1)c1cccc([N+](=O)[O-])c1O` [Compound 60], the melting point was 244 to 252 °C. The inhibition of growth at 0.0125 µg/mL in series [1] (setting [3]) is 33%. Besides, the “% Inhn. Plus Copper Observed” value in series [1] (Test Concn. 0.0125 μg/mL) came to 50%. In the series on C. reinhardtii CC-1928, the inhibition of growth at 1 µg/mL is -50% and the “% Inhn. Plus Copper Observed” value is 89%.
In the case of `C/C(=N\NC(=O)c1ccccc1)c1cc(Br)cc(Br)c1O` [Compound 61], the melting point lay within 242 to 245 °C. For the same molecule, the inhibition of growth at 0.05 µg/mL in series [1] (setting [2]) was determined as 61%. In addition, the “% Inhn. Plus Copper Observed” value in series [1] (Test Concn. 0.05 μg/mL) turned out to be 96%. Further, in the series with C. reinhardtii CC-1928, the inhibition of growth at 1 µg/mL was -56% and the “% Inhn. Plus Copper Observed” value worked out at 94%.
On to `C/C(=N\NC(=O)c1ccc(Cl)cc1)c1cc(F)cc(F)c1O` [Compound 62], for which the melting point fell in the range of 276 to 280 °C. Further, in series [1] (setting [2]), the inhibition of growth at 0.05 µg/mL was determined as 60%. The “% Inhn. Plus Copper Observed” value in series [1] (Test Concn. 0.05 μg/mL) was determined as 95%. Besides, in the series with C. reinhardtii CC-1928, the inhibition of growth at 1 µg/mL came to 0% and the “% Inhn. Plus Copper Observed” value is reported as 95%.
